According to article PMC5908839 (Scientific Reports, 2018):

Molecular target: T1, AioX (Pseudorhizobium banfieldiae, UniProt L0NML6)
T1 construct: 304 amino acid residues; His-tag removed; SeMet-labelled
T1 sequence (L0NML6 27-304): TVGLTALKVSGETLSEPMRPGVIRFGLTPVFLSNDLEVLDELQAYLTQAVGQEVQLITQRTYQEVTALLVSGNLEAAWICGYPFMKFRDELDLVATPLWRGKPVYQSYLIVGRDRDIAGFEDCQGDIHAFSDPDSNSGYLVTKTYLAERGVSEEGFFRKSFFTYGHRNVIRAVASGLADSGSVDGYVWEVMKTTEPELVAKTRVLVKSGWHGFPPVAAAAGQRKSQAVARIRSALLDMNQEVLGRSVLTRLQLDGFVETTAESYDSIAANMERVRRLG
Assay: X-ray crystal structure ([…] Å; phosphate from the crystallisation conditions); no binding detected by ITC

O=P(O)(O)O [phosphate]
Kd: > 2000 µM
